The text below walks through data of patent publication US9125406B2, “Methods and compositions for control of cabbage looper, trichoplusia ni” (Simon Fraser University, priority 2008, dated 2015).

Some results are limits rather than exact numbers.

The subject of data set [1] is third instar T. ni larvae. The experiment in a line: Leaf disk choice feeding deterrence bioassay. The format is in vivo, Trichoplusia ni. The source says: Cabbage plants (Brassica oleraceae var. Stonehead) used in the bioassays were routinely grown in plastic pots with a mixture of sandy loam soil and peat moss (4:1) in a greenhouse at the University of British Columbia, Vancouver, BC, Canada. Leaves were collected from cabbage plants that were 5-6 weeks old.
T. ni larvae and moths were obtained from a long established colony (>50 generations) maintained on an artificial diet, Velvetbean Caterpillar Diet No. F9796 [Bio-Sery Inc. (Frenchtown, NIL)] in the insectary of the University of British Columbia (UBC).
(§1) Initial screening for feeding deterrent effects was conducted at 50 μg/cm^2 in feeding deterrent bioassays.
Larvae were given the choice of feeding on two leaf disks, one treated with 10 μL of a solution of the test substance painted on each side and the other treated with a carrier solvent alone. The number of larvae was 25 per treatment.
Feeding deterrence data (percent) for initial screening concentration were analyzed by analysis of variance (ANOVA) after arcsin transformation using statistics software (Statistix 7. Analytical Software, Statistix 7 for Windows 95, 98, NT, 2000. Analytical Software, Tallahassee).

Data set [2] deals with third instar T. ni larvae. The experiment in a line: whole plant or invertebrate. As to conditions: contact toxicity to larvae; negative or zero values replaced by 0.1 for the index (footnote b). How it is done: as §1
Mortality was determined 24 h after spraying larvae directly with test solutions. Third instar T. ni larvae were sprayed in 90 mm×15 mm Petri dishes (Falcon) lined with Fisher Scientific filter paper (90 mm diameter). Small plastic hand spraying bottles (50 mL capacity) were used. Larvae were then transferred to Petri dishes (90 mm×15 mm) with a small piece of artificial diet. Each Petri dish contained 10 larvae. Three replicates, each consisting of 10 larvae, were used per treatment.

Data set [3] relates to T. ni neonates. The experiment in a line: Greenhouse test on cabbage plants with T. ni neonates. The data set is classed as in vivo, Trichoplusia ni. The following applies: for mean larval recovery / weight reduction: 6 days. As for the experimental part:
[…] Cabbage plants had 3-5 leaves. Each plant was sprayed (˜1 ml/leaf) and dried before the introduction of insects. There were 3 replicates of 5 plants for each treatment. Approximately nine T. ni neonates (<24 h old) were transferred on each plant. They were weighed after 6 days of feeding on the treatments. Numbers of larvae recovered from each treatment were also recorded. […] The mean larval recovery was not affected at the lowest concentration (0.0002%).

Data set [4] relates to Trichoplusia ni larva. Description: Leaf-disc choice bioassay on cabbage: dose-response and blend assay (Example 12). The format is in vivo. How it is done:
T. ni larvae were raised from eggs (Insect Production Services, Natural Resources Canada) on a wheat-germ based artificial diet (McMorran diet, Insect Production Services, Natural Resources Canada), or raised from eggs from a laboratory colony of T. ni adults, at 22±1° C., 32-40% humidity, 9 h/15 h light/dark photoperiod.
Cabbage (Brassica oleracea L. cv. Golden Acre) plants were grown from seed (Pacific Northwest Seeds, Vernon, B.C.) in sandy loam soil in the laboratory at 21±1° C. beside a south-facing window. Plants received supplemental lighting from grow-lights emitting light of wavelengths 430 and 662 nm for 2 h/d. Plants were about 2-3 months old (with about 8-12 fully expanded leaves) at time of leaf collection for disc choice bioassays.
3c{3,6} was synthesized as described herein. Azadirachtin in a neem oil preparation (TreeAzin [5% azadirachtins A and B]) was obtained from BioForest Technologies Inc., Sault Step. Marie, Canada. Azadirachtin solutions were prepared fresh on the day of the bioassay to avoid degradation. Cetyl alcohol was obtained from Sigma, palmitic acid from BDH Chemicals Ltd., methanol (HPLC-grade) from Calcdon, and isopropanol (2-propanol-205, distilled in glass) from Calcdon Ammonium hydroxide solution was obtained from CanLab.
Blend and whole plant studies used a “vehicle” that consisted of palmitic acid (25 mM), cetyl alcohol (25 mM), and isopropanol (50%). The vehicle was prepared by dissolving palmitic acid and cetyl alcohol in isopropanol. The solution was neutralized with 1M NaOH, followed by step-wise dilution with water.
Leaf discs (disc area: 2.24 cm^2) cut with a no. 10 borer from cabbage plant leaves were painted on each side with 20 μL of treatment solution or solvent, using a Hamilton 25 μL glass syringe, and allowed to dry. One treatment and one control leaf disc were placed on opposite sides (5 cm apart) of a 9 cm diameter Petri dish containing moistened filter paper (Whatman #1, 70 mm). A fasting Trichoplusia ni larva was placed midway between the two leaf discs and oriented away from either disc. Replicate Petri dishes were kept in a plastic basin, protected from light, at 22±1° C. during the feeding period. Larvae fasted for approximately 7 h prior to the experiments. […]
Leaf disc areas consumed were measured using a Canon CanoS can LiDE 20 scanner, CanoScan Toolbox 4.1 software, Microsoft Office Picture Manager, and Un-Scan-It Gel and Graph Digitizing Software v. […]
In the dose-response study leaf-disc choice bioassays were performed with larvae in day 1 or 2 of the 3rd and 4th instar. […] There were not enough data points in the dose-response data for a sigmoidal fit, but the DC50 could be determined by linear regression analysis, as was the case for Akhtar et al. (2007). […]

Data set [5] deals with T. ni moths. Description: Oviposition choice (deterrence) bioassay on cabbage leaves. The data set is classed as in vivo, Trichoplusia ni. As to conditions: Trichoplusia, 48 h, Table 8; at 0.25%; read-out: OD (%) Mean ± SE N = 35-40.

For `C=CCOc1ccc(OCCC)cc1` [3c{3, 6}, 1-allyloxy-4-propoxybenzene], in data set [1] (Trichoplusia, foliar, Table 8, 50 μg/cm^2, read-out: F.D (%) Mean ± SE N = 25), the pest or weed control at 50 µg/cm2, 50 µg/cm2 stood at 100%. The pest or weed control at 50 µg/cm2 in data set [1] (Trichoplusia, foliar, feeding deterrence (FD), Table 12, non-toxic feeding deterrents, read-out: % deterrence) amounted to 100%. Also, the DC50 is recorded as 0.5 μg/cm^2 in data set [1] (feeding deterrence DC50, unit not given in Table 12); 27 μg/cm^2 in data set [4] (3rd and 4th instar larvae, 83% methanol, linear regression 9 to 45 μg/cm^2). The “% mortality” value in data set [2] is −11 ^b %. Further, the mean larval recovery entry was “not affected” in data set [3] (0.0002% spray), 66.7% in data set [3] (0.0005% spray) and 52% in data set [3] (0.001% spray). In addition, the “weight of the larvae” value in data set [3] (0.0002% spray, 6 days feeding on cabbage plants) is listed as “not affected”. For the same molecule, the weight reduction came to 33.3% in data set [3] (0.0005% spray) and 48% in data set [3] (0.001% spray). The same molecule yielded a growth reduction in data set [3] (10 ppm, highest concentration) of around 50%. Further, the “FDI (%) mean (SE)” value in data set [4] (45 ug/cm^2) was 100 (0) b %; in data set [4] (45 ug/cm^2, listed as 3c{3,6}), 100±0%. Also, in data set [5], the pest or weed control at 0.25 % is below 30%.
For the molecule `C/C=C(\C)C(=O)O[C@H]1C[C@@H](OC(C)=O)[C@@]2(C(=O)OC)CO[C@H]3[C@@H](O)[C@@](C)([C@]45O[C@@]4(C)[C@H]4C[C@@H]5O[C@@H]5OC=C[C@@]54O)[C@H]4[C@]1(CO[C@]4(O)C(=O)OC)[C@@H]32` [azadirachtin, reference compound], the “FDI (%) mean (SE)” value in data set [4] (4.9 ug/cm^2 in vehicle, fifth instar larvae) is 43 (20) a %.
